How the values were obtained:
Format in all cases: functional
K562 [1] = assay: Cytotoxicity against human K562 cells assessed as cell growth at 10^-8 M after 48 hrs by SRB assay relative to control; settings: K562, 48 h, read-out: Activity
MDA-MB-435 = assay: Cytotoxicity against human MDA-MB-435 cells assessed as cell growth at 10^-7 M after 48 hrs by SRB assay relative to control; settings: MDA-MB-435, 48 h, read-out: Activity
[2] = Cytotoxicity against human OVCAR4 cells after 48 hrs by SRB assay; settings: OVCAR-4, 48 h
TK-10 = assay: Cytotoxicity against human TK10 cells assessed as cell growth at 10^-6 M after 48 hrs by SRB assay relative to control; settings: TK-10, 48 h, read-out: Activity
Malme-3M [3] = assay: Cytotoxicity against human MALME-3M cells assessed as cell growth at 10^-8 M after 48 hrs by SRB assay relative to control; settings: read-out: Activity
HL-60(TB) [4] = assay: Cytotoxicity against human HL-60(TB) cells assessed as cell growth at 10^-8 M after 48 hrs by SRB assay relative to control; settings: HL-60, 48 h, read-out: Activity
SNB-19 = assay: Cytotoxicity against human SNB19 cells assessed as cell growth at 10^-7 M after 48 hrs by SRB assay relative to control; settings: SNB-19, 48 h, read-out: Activity
[5] = Cytotoxicity against human UO31 cells after 48 hrs by SRB assay; settings: UO-31, 48 h
RXF 393 [6] = assay: Cytotoxicity against human RXF393 cells assessed as cell growth at 10^-7 M after 48 hrs by SRB assay relative to control; settings: RXF 393, 48 h, read-out: Activity
SK-MEL-2 = assay: Cytotoxicity against human SK-MEL-2 cells assessed as cell growth at 10^-7 M after 48 hrs by SRB assay relative to control; settings: SK-MEL-2, 48 h, read-out: Activity
CAKI-1 = assay: Cytotoxicity against human Caki1 cells assessed as cell growth at 10^-7 M after 48 hrs by SRB assay relative to control; settings: CAKI-1, 48 h, read-out: Activity
IGROV-1 [7] = assay: Cytotoxicity against human IGROV1 cells assessed as cell growth at 10^-8 M after 48 hrs by SRB assay relative to control; settings: IGROV-1, 48 h, read-out: Activity
IGROV-1 [8] = assay: Cytotoxicity against human IGROV1 cells assessed as cell growth at 10^-4 M after 48 hrs by SRB assay relative to control; settings: IGROV-1, 48 h, read-out: Activity
SK-MEL-5 = assay: Cytotoxicity against human SK-MEL-5 cells assessed as cell growth at 10^-7 M after 48 hrs by SRB assay relative to control; settings: SK-MEL-5, 48 h, read-out: Activity
[9] = Cytotoxicity against human HCT15 cells assessed as cell growth at 10^-4 M after 48 hrs by SRB assay relative to control; settings: HCT-15, 48 h, read-out: Activity
NCI-H322M = assay: Cytotoxicity against human NCI-H322M cells assessed as cell growth at 10^-4 M after 48 hrs by SRB assay relative to control; settings: read-out: Activity
SK-MEL-28 [10] = assay: Cytotoxicity against human SK-MEL-28 cells assessed as cell growth at 10^-6 M after 48 hrs by SRB assay relative to control; settings: SK-MEL-28, 48 h, read-out: Activity
K562 [11] = assay: Cytotoxicity against human K562 cells assessed as cell growth at 10^-6 M after 48 hrs by SRB assay relative to control; settings: K562, 48 h, read-out: Activity
SK-MEL-28 [12] = assay: Cytotoxicity against human SK-MEL-28 cells assessed as cell growth at 10^-7 M after 48 hrs by SRB assay relative to control; settings: SK-MEL-28, 48 h, read-out: Activity
Malme-3M [13] = assay: Cytotoxicity against human MALME-3M cells assessed as cell growth at 10^-6 M after 48 hrs by SRB assay relative to control; settings: read-out: Activity
MDA-MB-231 = assay: Cytotoxicity against human MDA-MB-231 cells assessed as cell growth at 10^-8 M after 48 hrs by SRB assay relative to control; settings: MDA-MB-231, 48 h, read-out: Activity
A549 = assay: Cytotoxicity against human A549 cells assessed as cell growth at 10^-8 M after 48 hrs by SRB assay relative to control; settings: A549, 48 h, read-out: Activity
HT-29 = assay: Cytotoxicity against human HT-29 cells assessed as cell growth at 10^-7 M after 48 hrs by SRB assay relative to control; settings: HT-29, 48 h, read-out: Activity
SF-539 = assay: Cytotoxicity against human SF539 cells assessed as cell growth at 10^-4 M after 48 hrs by SRB assay relative to control; settings: SF-539, 48 h, read-out: Activity
KM12 = assay: Cytotoxicity against human KM12 cells assessed as cell growth at 10^-4 M after 48 hrs by SRB assay relative to control; settings: KM12, 48 h, read-out: Activity
ACHN = assay: Cytotoxicity against human ACHN cells assessed as cell growth at 10^-8 M after 48 hrs by SRB assay relative to control; settings: read-out: Activity
RXF 393 [14] = assay: Cytotoxicity against human RXF393 cells assessed as cell growth at 10^-6 M after 48 hrs by SRB assay relative to control; settings: RXF 393, 48 h, read-out: Activity
SK-MEL-28 [15] = assay: Cytotoxicity against human SK-MEL-28 cells after 48 hrs by SRB assay; settings: SK-MEL-28, 48 h
HCC 2998 = assay: Cytotoxicity against human HCC2998 cells after 48 hrs by SRB assay; settings: HCC 2998, 48 h
[16] = Cytotoxicity against human PC3 cells assessed as cell growth at 10^-6 M after 48 hrs by SRB assay relative to control; settings: PC-3, 48 h, read-out: Activity
T47D = assay: Cytotoxicity against human T47D cells assessed as cell growth at 10^-7 M after 48 hrs by SRB assay relative to control; settings: read-out: Activity
HL-60(TB) [17] = assay: Cytotoxicity against human HL-60(TB) cells assessed as cell growth at 10^-4 M after 48 hrs by SRB assay relative to control; settings: HL-60, 48 h, read-out: Activity
SW-620 = assay: Cytotoxicity against human SW620 cells assessed as cell growth at 10^-7 M after 48 hrs by SRB assay relative to control; settings: SW-620, 48 h, read-out: Activity
RXF 393 [18] = assay: Cytotoxicity against human RXF393 cells assessed as cell growth at 10^-8 M after 48 hrs by SRB assay relative to control; settings: RXF 393, 48 h, read-out: Activity
LOX IMVI = assay: Cytotoxicity against human LOXIMVI cells assessed as cell growth at 10^-6 M after 48 hrs by SRB assay relative to control; settings: read-out: Activity
HOP-62 = assay: Cytotoxicity against human HOP62 cells assessed as cell growth at 10^-4 M after 48 hrs by SRB assay relative to control; settings: HOP-62, 48 h, read-out: Activity
[19] = read-out: LC50 (the source's name)

COc1ccc(CCN2COc3c([C@@H](C)CCC=C(C)C)ccc(C)c3C2)cc1OC
growth at 0.01 µM (K562 [1]): 102%
growth at 0.1 µM (MDA-MB-435): 95%
GI50 [2]: 2890 nM
LC50 [2]: > 100 µM
TGI [2]: 16 µM
growth at 1 µM (TK-10): 89%
growth at 0.01 µM (Malme-3M [3]): 91%
growth at 0.01 µM (HL-60(TB) [4]): 98%
growth at 0.1 µM (SNB-19): 96%
GI50 [5]: 2450 nM
LC50 [5]: 36.4 µM
TGI [5]: 12.3 µM
growth at 0.1 µM (RXF 393 [6]): 88%
growth at 0.1 µM (SK-MEL-2): 85%
growth at 0.1 µM (CAKI-1): 91%
growth at 0.01 µM (IGROV-1 [7]): 119%
growth at 100 µM (IGROV-1 [8]): -99%
growth at 0.1 µM (SK-MEL-5): 91%
growth at 100 µM [9]: -87%
growth at 100 µM (NCI-H322M): -69%
growth at 1 µM (SK-MEL-28 [10]): 99%
growth at 1 µM (K562 [11]): 98%
growth at 0.1 µM (SK-MEL-28 [12]): 84%
growth at 1 µM (Malme-3M [13]): 79%
growth at 0.01 µM (MDA-MB-231): 100%
growth at 0.01 µM (A549): 87%
growth at 0.1 µM (HT-29): 93%
growth at 100 µM (SF-539): -100%
growth at 100 µM (KM12): -75%
growth at 0.01 µM (ACHN): 95%
growth at 1 µM (RXF 393 [14]): 76%
GI50 (SK-MEL-28 [15]): 2210 nM
TGI (SK-MEL-28 [15]): 4.94 µM
CC50 (SK-MEL-28 [15]; [19]): 13.3 µM
GI50 (HCC 2998): 1590 nM
TGI (HCC 2998): 2960 nM
CC50 (HCC 2998; [19]): 5.49 µM
growth at 1 µM [16]: 81%
growth at 0.1 µM (T47D): 69%
growth at 100 µM (HL-60(TB) [17]): -5%
growth at 0.1 µM (SW-620): 93%
growth at 0.01 µM (RXF 393 [18]): 70%
growth at 1 µM (LOX IMVI): 88%
growth at 100 µM (HOP-62): 100%
